Data taken from PubChem BioAssay AID1845201 (Molecular Pharmacology Branch, DTP, NCI, 2023).

Test system: COR L88 complex tumor spheroid viability
Test: Anticancer human tumor COR L88 cell line growth inhibition;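 note: compound exposure lasted 7 days before viability readout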;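 for viability, T/C: percent of DMSO vehicle-treated spheroids = 100%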
Conditions: for IC50: curve of first compound; for viability, T/C: stronger effect = lower value
In short: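 Complex spheroids of malignant cells with endothelial cells and mesenchymal stem cells; agents alone or combined, from near clinical Cmax (or 10 microM if unknown) down in half-log steps, 0.25% DMSO final.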

Question: `COc1ccc([C@@H](O)c2cc(-c3ncnc4cc(N5CCOCC5)ccc34)c(F)cc2Cl)nn1` + CC[C@@]1(O)C(=O)OCc2c1cc1n(c2=O)Cc2cc3c(CN(C)C)c(O)ccc3nc2-1 was tested. Which IC50 (second compound 0.003 µM) did it give?
Answer: 3180 nM

Question: What about the IC50 (second compound 0.00949 µM) of the same compound?
Answer: 4000 nM

Question: And the IC50 (second compound 0.03 µM)?
Answer: 98.3 nM

Question: And the IC50 (second compound 0.0949 µM)?
Answer: 122 nM

Question: What about the IC50 (second compound 0.3 µM) of the same compound?
Answer: 132 nM

Question: And the viability, T/C (second compound 0.003 µM, first compound 0.0316 µM)?
Answer: 96.3%

Question: And the viability, T/C (second compound 0.003 µM, first compound 0.1 µM)?
Answer: 101%

Question: What about the viability, T/C (second compound 0.003 µM, first compound 0.316 µM) of the same compound?
Answer: 94.2%

Question: And the viability, T/C (second compound 0.003 µM, first compound 1 µM)?
Answer: 71.8%

Question: And the viability, T/C (second compound 0.003 µM, first compound 3.16 µM)?
Answer: 52.3%

Question: What about the viability, T/C (second compound 0.003 µM, first compound 10 µM) of the same compound?
Answer: 34.6%

Question: What about the viability, T/C (second compound 0.00949 µM, first compound 0.0316 µM) of the same compound?
Answer: 68.3%

Question: What about the viability, T/C (second compound 0.00949 µM, first compound 0.1 µM) of the same compound?
Answer: 68.7%

Question: What about the viability, T/C (second compound 0.00949 µM, first compound 0.316 µM) of the same compound?
Answer: 67.9%

Question: And the viability, T/C (second compound 0.00949 µM, first compound 1 µM)?
Answer: 57.6%

Question: And the viability, T/C (second compound 0.00949 µM, first compound 3.16 µM)?
Answer: 52.9%

Question: And the viability, T/C (second compound 0.00949 µM, first compound 10 µM)?
Answer: 40.6%

Question: What about the viability, T/C (second compound 0.03 µM, first compound 0.0316 µM) of the same compound?
Answer: 53.1%

Question: What about the viability, T/C (second compound 0.03 µM, first compound 0.1 µM) of the same compound?
Answer: 53.6%

Question: What about the viability, T/C (second compound 0.03 µM, first compound 0.316 µM) of the same compound?
Answer: 46.6%

Question: And the viability, T/C (second compound 0.03 µM, first compound 1 µM)?
Answer: 40.1%

Question: And the viability, T/C (second compound 0.03 µM, first compound 3.16 µM)?
Answer: 32%

Question: And the viability, T/C (second compound 0.03 µM, first compound 10 µM)?
Answer: 38.5%

Question: What about the viability, T/C (second compound 0.0949 µM, first compound 0.0316 µM) of the same compound?
Answer: 55.3%

Question: And the viability, T/C (second compound 0.0949 µM, first compound 0.1 µM)?
Answer: 53.2%

Question: What about the viability, T/C (second compound 0.0949 µM, first compound 0.316 µM) of the same compound?
Answer: 45.2%

Question: What about the viability, T/C (second compound 0.0949 µM, first compound 1 µM) of the same compound?
Answer: 40.5%

Question: And the viability, T/C (second compound 0.0949 µM, first compound 3.16 µM)?
Answer: 31.8%

Question: What about the viability, T/C (second compound 0.0949 µM, first compound 10 µM) of the same compound?
Answer: 31.7%

Question: What about the viability, T/C (second compound 0.3 µM, first compound 0.0316 µM) of the same compound?
Answer: 54.2%

Question: And the viability, T/C (second compound 0.3 µM, first compound 0.1 µM)?
Answer: 51%

Question: What about the viability, T/C (second compound 0.3 µM, first compound 0.316 µM) of the same compound?
Answer: 43.9%

Question: What about the viability, T/C (second compound 0.3 µM, first compound 1 µM) of the same compound?
Answer: 37.6%

Question: And the viability, T/C (second compound 0.3 µM, first compound 3.16 µM)?
Answer: 18.6%

Question: What about the viability, T/C (second compound 0.3 µM, first compound 10 µM) of the same compound?
Answer: 8.14%

Question: What does the source list for `CC1COCCN1c1cc(-c2ccnn2C)c2ccnc(-c3ccn[nH]3)c2n1` (stereo not given) + Cn1nnc2c(C(N)=O)ncn2c1=O?
Answer: IC50 (second compound 1 µM): 159 nM; IC50 (second compound 3.16 µM): 77.4 nM; IC50 (second compound 10 µM): < 31.6 nM; IC50 (second compound 31.6 µM): < 31.6 nM; IC50 (second compound 100 µM): < 31.6 nM; viability, T/C (second compound 1 µM, first compound 0.0316 µM): 80.7%; viability, T/C (second compound 1 µM, first compound 0.1 µM): 53.9%; viability, T/C (second compound 1 µM, first compound 0.316 µM): 41.1%; viability, T/C (second compound 1 µM, first compound 1 µM): 26.6%; viability, T/C (second compound 1 µM, first compound 3.16 µM): 11.2%; viability, T/C (second compound 1 µM, first compound 10 µM): 5.06%; viability, T/C (second compound 3.16 µM, first compound 0.0316 µM): 59%; viability, T/C (second compound 3.16 µM, first compound 0.1 µM): 47.8%; viability, T/C (second compound 3.16 µM, first compound 0.316 µM): 33.9%; viability, T/C (second compound 3.16 µM, first compound 1 µM): 22.4%; viability, T/C (second compound 3.16 µM, first compound 3.16 µM): 11.9%; viability, T/C (second compound 3.16 µM, first compound 10 µM): 4.44%; viability, T/C (second compound 10 µM, first compound 0.0316 µM): 46.1%; viability, T/C (second compound 10 µM, first compound 0.1 µM): 36.3%; viability, T/C (second compound 10 µM, first compound 0.316 µM): 29.4%; viability, T/C (second compound 10 µM, first compound 1 µM): 18.4%; viability, T/C (second compound 10 µM, first compound 3.16 µM): 9.76%; viability, T/C (second compound 10 µM, first compound 10 µM): 3.5%; viability, T/C (second compound 31.6 µM, first compound 0.0316 µM): 41.7%; viability, T/C (second compound 31.6 µM, first compound 0.1 µM): 33.8%; viability, T/C (second compound 31.6 µM, first compound 0.316 µM): 24.1%; viability, T/C (second compound 31.6 µM, first compound 1 µM): 16.8%; viability, T/C (second compound 31.6 µM, first compound 3.16 µM): 7.93%; viability, T/C (second compound 31.6 µM, first compound 10 µM): 3.99%; viability, T/C (second compound 100 µM, first compound 0.0316 µM): 34.3%; viability, T/C (second compound 100 µM, first compound 0.1 µM): 27.8%; viability, T/C (second compound 100 µM, first compound 0.316 µM): 21.5%; viability, T/C (second compound 100 µM, first compound 1 µM): 12.3%; viability, T/C (second compound 100 µM, first compound 3.16 µM): 6.89%; viability, T/C (second compound 100 µM, first compound 10 µM): 3.01%
